Results published in patent publication US10786481B2, “Hydroquinone compounds, preparation methods therefor, and use in anti-tumor or immunomodulation therapy” (Biomedical Analysis Center, Academy of Military Medical …, priority 2016, dated 2020).

Assays:
[1] = tested on: mice embryonic fibroblast (NIH3t3); test: Cytotoxicity, MTS method, NIH3T3 cell; assay type: cell-based; conditions: Mus musculus, NIH3T3, MTS method; read-out: IC50(mM) NIH3T3 cell
Source text: (§1) The toxicity of compounds is detected with MTS method in the immortalized mice bone marrowmacrophages (IBMM), mice embryonic fibroblast (NIH3t3) and humanized embryonic nephrocyte.

[2] = tested on: immortalized mice bone marrowmacrophages (IBMM); test: Cytotoxicity, MTS method, IBMM cell; assay type: cell-based; conditions: Mus musculus, Bone marrow macrophage, MTS method; read-out: IC50(mM) IBMM cell
Source text: as §1

[3] = tested on: humanized embryonic nephrocyte (HEK293 cell); test: Cytotoxicity, MTS method, HEK293 cell; assay type: cell-based; conditions: Homo sapiens, HEK293, MTS method; read-out: IC50(mM) HEK293 cell
Source text: as §1

[4] = Release experiment of target compound in human plasma; conditions: 37° C., 5 min to 9 h
Protocol: Mobile phase: gradient elution; A: water; B: methanol;
Chromatographic column: CAPCEL PAK MF PH-1;
Detecting instrument: TQ-S; ion source: APCI; ion detection mode: MRM;
Dissolving the target compound with DMSO, then diluting to 5 μg/mL with the normal saline of 0.9%. The human blank plasma after subpackage is preserved at −70° C., unfreezing in a refrigerator at 4° C. when used. Take 20 μL of the blank plasma, adding 20 μL of the target compound solution as above formulated, vortexing for 15 s, and left it in the water bath at 37° C. […] Take the supernatant and inject 10 μL for detection.

Molecule	IC50 [1] [mM]	IC50 [2] [mM]	IC50 [3] [mM]	release of BHA in human plasma [4]
COc1ccc(OC(=O)c2ccccc2)c(C(C)(C)C)c1 [XH2005, 2-tert-butyl-4-methoxyphenol benzoate]	0.0875	0.439	0.082	releases BHA
COc1ccc(OC(=O)C2=CCCCC2)c(C(C)(C)C)c1 [XH2015, 2-tert-butyl-4-methoxyphenol cyclohexenecarboxylate]	0.194	0.147	0.109	releases BHA
CCC(=O)Oc1ccc(OC)cc1C(C)(C)C [XH2016, 2-tert-butyl-4-methoxyphenol propionate]	0.0186	0.148	0.065	–
C=CC(=O)Oc1ccc(OC)cc1C(C)(C)C [XH2017, 2-tert-butyl-4-methoxyphenol acrylate]	0.0229	0.56	0.008	–
COc1ccc(OC(=O)Cc2ccc(OC)c(OC)c2)c(C(C)(C)C)c1 [XH2018, (2-tert-butyl-4-methoxyphenol) 3,4-dimethoxyphenylacetate]	0.333	0.13	0.386	releases BHA
CC#CC(=O)Oc1ccc(OC)cc1C(C)(C)C [XH2019, 2-tert-butyl-4-methoxyphenol butynoate]	0.0476	0.024	0.037	releases BHA
COc1ccc(OC(=O)c2ccccc2-c2ccccc2C(=O)Oc2ccc(OC)cc2C(C)(C)C)c(C(C)(C)C)c1 [XH2020, bis(2-tert-butyl-4-methoxyphenol)2,2′-biphenyldicarboxylate]	–	–	–	releases BHA
COc1ccc(OC(=O)Cc2cccc(F)c2)c(C(C)(C)C)c1 [XH2022, (2-tert-butyl-4-methoxyphenol) 3-fluorophenylacetate]	–	–	–	releases BHA
COc1ccc(OC(=O)Cc2c[nH]c3ccccc23)c(C(C)(C)C)c1 [XH2023, (2-tert-butyl-4-methoxyphenol) (1H-indole-3-yl)acetate]	0.065	0.0065	0.03	releases BHA
COc1ccc(OC(=O)CCc2ccc(F)cc2)c(C(C)(C)C)c1 [XH2024, (2-tert-butyl-4-methoxyphenol) 3-(4-fluorophenyl)-propionate]	–	–	–	releases BHA
COc1ccc(OC(=O)C2CCCN(C(=O)OC(C)(C)C)C2)c(C(C)(C)C)c1 (centres unmarked) [XH2025, (2-tert-butyl-4-methoxyphenol) N-tert-butoxycarbonylpiperidine-3-formate]	–	–	–	releases BHA
COc1ccc(OC(=O)CCc2cccc([N+](=O)[O-])c2)c(C(C)(C)C)c1 [XH2028, (2-tert-butyl-4-methoxyphenol) 3-(3-nitrophenyl)propionate]	–	–	–	releases BHA
COc1ccc(OC(=O)c2ccc(-c3ccccc3)cc2)c(C(C)(C)C)c1 [XH2029, (2-tert-butyl-4-methoxyphenol) 4-phenylbenzoate]	–	–	–	releases BHA
COc1ccc(OC(=O)c2cnccc2C)c(C(C)(C)C)c1 [XH2030, (2-tert-butyl-4-methoxyphenol) 4-methylpyridine-3-formate]	–	–	–	releases BHA
COc1ccc(OC(=O)c2cnccc2OC)c(C(C)(C)C)c1 [XH2031, (2-tert-butyl-4-methoxyphenol) 4-methoxypyridine-3-formate]	–	–	–	releases BHA
CCCCCCCCCCCCCCCC(=O)Oc1ccc(OC)cc1C(C)(C)C [XH2033, 2-tert-butyl-4-methoxyphenol hexadecylate]	–	–	–	releases BHA
COc1ccc(OC(=O)CNC(=O)OC(C)(C)C)c(C(C)(C)C)c1 [XH2034, N-tert-butoxycarbonylglycine(2-tert-butyl-4-methoxyphenol)ester]	–	–	–	releases BHA
COc1ccc(OC(=O)c2ccc(Cl)c(F)c2)c(C(C)(C)C)c1 [XH2035, (2-tert-butyl-4-methoxyphenol) 3-fluoro-4-chlorobenzoate]	–	–	–	releases BHA
COc1ccc(OC(=O)c2cccc(C#N)c2)c(C(C)(C)C)c1 [XH2036-2, (2-tert-butyl-4-methoxyphenol) 3-cyanobenzoate]	–	–	–	releases BHA
COc1ccc(OC(=O)c2ccc3ccccc3c2)c(C(C)(C)C)c1 [XH2036-4, (2-tert-butyl-4-methoxyphenol) 2-naphthoate]	0.232	0.23	0.253	releases BHA
COc1ccc(OC(=O)c2cc(Cl)nnc2Cl)c(C(C)(C)C)c1 [XH2038-1, (2-tert-butyl-4-methoxyphenol) 3,6-dichloropyridazine-4-formate]	0.236	0.222	0.33	–
COc1ccc(OC(=O)c2cc3ccccc3[nH]2)c(C(C)(C)C)c1 [XH2038-3, (2-tert-butyl-4-methoxyphenol) 2-indoleformate]	0.517	0.263	0.205	releases BHA

Molecule	IC50 [1] [mM]	IC50 [2] [mM]	IC50 [3] [mM]	release of BHA in human plasma [4]
COc1ccc(OC(=O)c2cccnc2Cl)c(C(C)(C)C)c1 [XH2038-4, (2-tert-butyl-4-methoxyphenol) 2-chloro-3-picolinate]	–	–	–	releases BHA
COc1ccc(OC(=O)Cc2cccs2)c(C(C)(C)C)c1 [XH2038-5, (2-tert-butyl-4-methoxyphenol) 2-thiopheneacetate]	0.146	0.202	0.266	releases BHA
COc1ccc(OC(=O)CCc2ccc(C)cc2)c(C(C)(C)C)c1 [XH2039-1, (2-tert-butyl-4-methoxyphenol) 3-(4-methylphenyl)-propionate]	–	–	–	releases BHA
C#CC(=O)Oc1ccc(OC)cc1C(C)(C)C [XH2039-2, (2-tert-butyl-4-methoxyphenol) propiolate]	0.248	0.159	0.125	releases BHA
COc1ccc(OC(=O)C(C)c2ccccc2)c(C(C)(C)C)c1 (centres unmarked) [XH2039-3, (2-tert-butyl-4-methoxyphenol) 2-phenyl propionate]	–	–	–	releases BHA
COc1ccc(OC(=O)C(C)F)c(C(C)(C)C)c1 (centres unmarked) [XH2039-4, (2-tert-butyl-4-methoxyphenol) 2-fluoropropionate]	–	–	–	releases BHA
COc1ccc(OC(=O)CC2CCCCC2)c(C(C)(C)C)c1 [XH2039-5, (2-tert-butyl-4-methoxyphenol) cyclohexylacetate]	0.106	0.067	0.087	releases BHA
COc1ccc(OC(=O)CC23CC4CC(CC(C4)C2)C3)c(C(C)(C)C)c1 [XH2040-1, (2-tert-butyl-4-methoxyphenol) adamantaneacetate]	–	–	–	releases BHA
COc1ccc(OC(=O)CCCCCC(C)=O)c(C(C)(C)C)c1 [XH2040-5, (2-tert-butyl-4-methoxyphenol) 7-oxooctanoate]	–	–	–	releases BHA
COc1ccc(OC(=O)c2cc(I)ccc2Br)c(C(C)(C)C)c1 [XH2041-3, (2-tert-butyl-4-methoxyphenol) 2-bromo-5-iodo benzoate]	–	–	–	releases BHA
COc1ccc(OC(=O)c2ccc([N+](=O)[O-])cc2F)c(C(C)(C)C)c1 [XH2041-4, (2-tert-butyl-4-methoxyphenol) 2-fluoro-4-nitryl benzoate]	–	–	–	releases BHA
COc1ccc(OC(=O)C2CCCN(C(=O)OC(C)(C)C)C2)c(C(C)(C)C)c1 (centres unmarked) [XH2041-5, (2-tert-butyl-4-methoxyphenol) N-tert-butoxycarbonylpiperidine-3-formate]	–	–	–	releases BHA
COc1ccc(OC(=O)CCCC(=O)c2ccccc2)c(C(C)(C)C)c1 [XH2043-1, (2-tert-butyl-4-methoxyphenol) 4-benzoyl butyrate]	–	–	–	releases BHA
COc1cc(C=CC(=O)Oc2ccc(OC)cc2C(C)(C)C)cc(OC)c1 [XH2043-2, (2-tert-butyl-4-methoxyphenol) 3,5-dimethoxy phenylacrylate]	–	–	–	releases BHA
COc1ccc(OC(=O)c2cc(Cl)ccn2)c(C(C)(C)C)c1 [XH2043-3, (2-tert-butyl-4-methoxyphenol) 4-chloropyridine-2-formate]	–	–	–	releases BHA
COc1ccc(OC(=O)C2CCCN(C)C2)c(C(C)(C)C)c1 (centres unmarked) [XH2043-4, (2-tert-butyl-4-methoxyphenol) N-methylpiperidine-3-formate]	–	–	–	releases BHA
COc1ccc(OC(=O)CCc2cc(C(C)(C)C)c(O)c(C(C)(C)C)c2)c(C(C)(C)C)c1 [XH2045-2, (2-tert-butyl-4-methoxyphenol) 3-(3,5-di-tert-butyl-4-hydroxy-phenyl)propionate]	–	–	–	releases BHA
(2-tert-butyl-4-methoxyphenol) 1-methylcyclopropyl formate [XH2038-2]	–	–	–	releases BHA
di(2-tert-butyl-4-methoxyphenol) adipate [XH2046-3]	–	–	–	releases BHA
di(2-tert-butyl-4-methoxyphenol) malonate [XH2037]	–	–	–	releases BHA
di(2-tert-butyl-4-methoxyphenol) p-phenylenediacetate [XH2042]	–	–	–	releases BHA
di(2-tert-butyl-4-methoxyphenol) terephthalate [XH2026]	–	–	–	releases BHA
